Results as given in ChEMBL document CHEMBL5137068, “Discovery of Hexahydrofuro[3,2-b]furans as New Kinase-Selective and Orally Bioavailable JAK3 Inhibitors for the Treatment of Leukemia Harboring a JAK3 Activating Mutant” (J Med Chem, 2022).
The source made the active and inactive calls. The rule behind the calls is not given here.

Assays:
[1] = target: T1, Non-receptor tyrosine-protein kinase TYK2 (Homo sapiens, UniProt P29597); assay: Inhibition of human TYK2 at 0.5 uM relative to control
[2] = target: T2, Tyrosine-protein kinase JAK3 (Homo sapiens, UniProt P52333)
T2 sequence (P52333 whole entry): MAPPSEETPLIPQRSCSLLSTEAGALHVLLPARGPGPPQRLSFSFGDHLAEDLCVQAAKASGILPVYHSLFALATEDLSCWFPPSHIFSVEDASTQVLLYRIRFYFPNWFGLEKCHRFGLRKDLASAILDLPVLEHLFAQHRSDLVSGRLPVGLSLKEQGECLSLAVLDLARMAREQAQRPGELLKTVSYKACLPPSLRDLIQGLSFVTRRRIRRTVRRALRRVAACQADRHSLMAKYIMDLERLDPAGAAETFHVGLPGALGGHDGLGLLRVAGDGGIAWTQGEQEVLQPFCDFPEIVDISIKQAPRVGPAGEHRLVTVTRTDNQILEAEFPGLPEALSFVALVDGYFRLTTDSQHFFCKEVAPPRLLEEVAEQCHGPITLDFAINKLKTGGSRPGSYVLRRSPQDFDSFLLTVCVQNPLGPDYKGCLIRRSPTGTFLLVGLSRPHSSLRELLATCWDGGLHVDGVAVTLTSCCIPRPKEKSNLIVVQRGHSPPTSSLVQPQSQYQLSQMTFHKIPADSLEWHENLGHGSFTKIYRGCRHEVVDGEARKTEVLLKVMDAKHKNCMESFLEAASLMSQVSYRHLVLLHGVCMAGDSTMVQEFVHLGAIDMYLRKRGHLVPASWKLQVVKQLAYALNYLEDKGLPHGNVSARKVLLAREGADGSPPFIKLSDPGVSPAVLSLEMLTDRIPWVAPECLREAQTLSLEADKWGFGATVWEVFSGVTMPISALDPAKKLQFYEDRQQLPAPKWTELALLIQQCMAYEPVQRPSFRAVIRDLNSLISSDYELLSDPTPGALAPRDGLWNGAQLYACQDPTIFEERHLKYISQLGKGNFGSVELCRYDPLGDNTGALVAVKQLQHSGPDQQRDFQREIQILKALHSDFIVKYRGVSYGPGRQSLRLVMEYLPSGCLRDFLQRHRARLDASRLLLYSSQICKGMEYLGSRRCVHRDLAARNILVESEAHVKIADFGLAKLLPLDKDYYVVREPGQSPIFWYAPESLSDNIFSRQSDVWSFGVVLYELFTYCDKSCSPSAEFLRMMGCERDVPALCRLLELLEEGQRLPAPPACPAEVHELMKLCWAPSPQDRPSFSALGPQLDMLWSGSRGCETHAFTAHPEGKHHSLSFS
Description: Inhibition of GST tagged recombinant human JAK3 expressed in baculovirus infection system by FRET assay

[3] = target: Cyclin-Y/Cyclin-dependent kinase 16 (Homo sapiens) (UniProt Q00536+Q8ND76); assay: Inhibition of human CDK16/cyclin-Y at 0.5 uM relative to control; assay type: protein-complex assay
U-937 [4] = assay: Induction of cell cycle arrest in human U-937 cells assessed as accumulation at G0/G1 phase at 100 nM measured after 24 hrs by propidium iodide staining based flow cytometric analysis (reference value: 62.95%); assay type: functional
[5] = target: T3, Tyrosine-protein kinase JAK3 (Homo sapiens) (UniProt P52333); assay: Inhibition of JAK3 activation in human U-937 cells assessed as decrease in P-STAT5 at 100 uM by Western blot analysis; assay type: cell-based; conditions: time 0-24 hrs, TDE = time-dependent effect
T3 sequence (whole entry): T2 sequence (P52333 whole entry)

[6] = target: Cytoplasmic tyrosine-protein kinase BMX (Homo sapiens) (UniProt P51813); assay: Inhibition of BMX (unknown origin) at 0.5 uM assessed as competition rate relative to control
Chain of Cytoplasmic tyrosine-protein kinase BMX (Homo sapiens) (P51813 whole entry): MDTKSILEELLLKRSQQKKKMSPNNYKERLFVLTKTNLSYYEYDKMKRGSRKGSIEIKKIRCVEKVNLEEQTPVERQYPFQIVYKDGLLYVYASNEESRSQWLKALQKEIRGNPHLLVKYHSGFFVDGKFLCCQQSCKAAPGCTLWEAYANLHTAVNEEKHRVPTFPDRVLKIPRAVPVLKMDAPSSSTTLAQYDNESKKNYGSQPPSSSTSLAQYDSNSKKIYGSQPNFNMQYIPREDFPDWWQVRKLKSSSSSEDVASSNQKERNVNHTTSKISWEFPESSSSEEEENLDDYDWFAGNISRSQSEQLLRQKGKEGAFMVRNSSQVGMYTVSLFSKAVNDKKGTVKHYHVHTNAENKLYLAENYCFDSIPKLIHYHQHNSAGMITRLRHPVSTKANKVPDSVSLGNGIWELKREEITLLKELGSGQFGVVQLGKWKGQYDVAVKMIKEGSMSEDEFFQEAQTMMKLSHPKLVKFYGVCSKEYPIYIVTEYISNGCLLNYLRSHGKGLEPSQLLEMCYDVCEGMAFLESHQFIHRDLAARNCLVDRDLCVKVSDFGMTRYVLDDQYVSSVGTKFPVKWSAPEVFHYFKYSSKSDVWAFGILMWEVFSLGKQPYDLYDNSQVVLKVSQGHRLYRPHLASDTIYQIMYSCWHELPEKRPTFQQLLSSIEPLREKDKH

[7] = target: T3, Tyrosine-protein kinase JAK3 (Homo sapiens); assay: Inhibition of human JAK3 at 0.5 uM relative to control
U-937 [8] = assay: Induction of cell cycle arrest in human U-937 cells assessed as downregulation of Cyclic E1 at 0 to 300 nM measured after 24 hrs by western blot analysis; assay type: functional, cell-based; conditions: dose 0-300 nM
[9] = target: Tyrosine-protein kinase ITK/TSK (Homo sapiens) (UniProt Q08881); assay: Inhibition of ITK (unknown origin) at 0.5 uM assessed as competition rate relative to control
Chain of Tyrosine-protein kinase ITK/TSK (Homo sapiens) (Q08881 whole entry): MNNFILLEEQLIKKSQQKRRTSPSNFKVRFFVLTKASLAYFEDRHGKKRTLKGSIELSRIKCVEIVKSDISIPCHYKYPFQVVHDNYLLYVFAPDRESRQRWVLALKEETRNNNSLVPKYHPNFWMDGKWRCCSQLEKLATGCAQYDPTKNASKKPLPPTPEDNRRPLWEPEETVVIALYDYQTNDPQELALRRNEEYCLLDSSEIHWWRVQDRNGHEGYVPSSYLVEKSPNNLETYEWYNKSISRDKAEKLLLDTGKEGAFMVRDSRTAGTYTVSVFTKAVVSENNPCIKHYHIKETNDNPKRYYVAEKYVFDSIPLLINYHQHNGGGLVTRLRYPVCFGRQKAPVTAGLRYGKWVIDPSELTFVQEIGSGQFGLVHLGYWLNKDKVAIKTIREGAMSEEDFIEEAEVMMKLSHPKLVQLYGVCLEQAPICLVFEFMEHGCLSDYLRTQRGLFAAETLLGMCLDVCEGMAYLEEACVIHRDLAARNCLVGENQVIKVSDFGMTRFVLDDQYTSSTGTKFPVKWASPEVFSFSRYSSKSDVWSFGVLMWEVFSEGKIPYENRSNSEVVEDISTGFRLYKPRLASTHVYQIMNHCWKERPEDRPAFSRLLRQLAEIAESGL

[10] = AUC(0 to infinity) in 12 hr fasted SPF Sprague-Dawley rat at 15 mg/kg, po upon 2 hrs fasting post-administration upto 24 hrs; assay type: ADME, organism-based; set-up: dose 15 mg/kg, time < 24 hrs, route po; conditions: in vivo
[11] = target: Receptor tyrosine-protein kinase erbB-4 (Homo sapiens) (UniProt Q15303); assay: Inhibition of HER4 (unknown origin) at 0.5 uM relative to control
[12] = target: T3, Tyrosine-protein kinase JAK3 (Homo sapiens); assay: Inhibition of JAK3 in human U-937 cells assessed as decrease in P-JAK3 phosphorylation at 200 uM pretreated for 10 hrs followed by compound washout by immunoblotting analysis; assay type: cell-based
[13] = target: Cytoplasmic tyrosine-protein kinase BMX (Homo sapiens) (UniProt P51813); assay: Inhibition of BMX (unknown origin) at 0.5 uM relative to control
U-937 [14] = assay: Induction of cell cycle arrest in human U-937 cells assessed as accumulation at G2/M phase at 300 nM measured after 24 hrs by propidium iodide staining based flow cytometric analysis (reference value: 21.41%); assay type: functional
[15] = target: [Pyruvate dehydrogenase (acetyl-transferring)] kinase isozyme 1, mitochondrial (Homo sapiens) (UniProt Q15118); assay: Inhibition of PDK1 (unknown origin) at 0.5 uM assessed as competition rate relative to control
[16] = target: Cyclin-Y/Cyclin-dependent kinase 16 (Homo sapiens, UniProt Q00536); assay: Inhibition of human CDK16/cyclin-Y protein-protein complex; assay type: protein-complex assay
Chain of Cyclin-Y/Cyclin-dependent kinase 16 (Q00536 whole entry): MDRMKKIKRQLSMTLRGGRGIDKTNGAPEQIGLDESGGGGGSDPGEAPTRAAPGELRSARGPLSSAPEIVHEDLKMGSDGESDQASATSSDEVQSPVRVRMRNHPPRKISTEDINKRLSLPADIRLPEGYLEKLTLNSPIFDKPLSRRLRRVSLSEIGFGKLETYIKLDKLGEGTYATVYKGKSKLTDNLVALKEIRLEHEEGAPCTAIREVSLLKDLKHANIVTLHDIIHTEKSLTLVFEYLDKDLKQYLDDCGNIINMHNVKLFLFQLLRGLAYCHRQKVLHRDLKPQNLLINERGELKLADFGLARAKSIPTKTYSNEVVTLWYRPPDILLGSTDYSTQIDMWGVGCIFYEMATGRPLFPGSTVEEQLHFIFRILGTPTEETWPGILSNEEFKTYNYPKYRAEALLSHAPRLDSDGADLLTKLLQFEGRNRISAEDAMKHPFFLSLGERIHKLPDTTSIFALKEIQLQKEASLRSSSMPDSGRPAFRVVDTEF
Chain of Cyclin-Y/Cyclin-dependent kinase 16 (Q8ND76 whole entry, further chain): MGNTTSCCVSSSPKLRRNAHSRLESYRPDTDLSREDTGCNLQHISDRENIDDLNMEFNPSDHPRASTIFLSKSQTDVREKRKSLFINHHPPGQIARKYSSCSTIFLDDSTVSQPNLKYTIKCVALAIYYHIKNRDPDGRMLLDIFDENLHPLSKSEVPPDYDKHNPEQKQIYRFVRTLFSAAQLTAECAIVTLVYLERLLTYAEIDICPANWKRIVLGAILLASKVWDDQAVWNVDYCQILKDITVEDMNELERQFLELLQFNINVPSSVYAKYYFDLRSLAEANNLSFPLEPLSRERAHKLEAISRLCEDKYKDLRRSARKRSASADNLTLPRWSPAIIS

U-937 [17] = assay: Induction of cell cycle arrest in human U-937 cells assessed as accumulation at S phase at 3.7 nM measured after 24 hrs by propidium iodide staining based flow cytometric analysis (reference value: 15.35%); assay type: functional
[18] = target: Receptor-type tyrosine-protein kinase FLT3 (Homo sapiens, UniProt P36888); assay: Inhibition of human FLT3
[19] = target: T4, Tyrosine-protein kinase JAK1 (Homo sapiens, UniProt P23458); assay: Inhibition of human JAK1 at 0.5 uM relative to control
T4 sequence (P23458 whole entry): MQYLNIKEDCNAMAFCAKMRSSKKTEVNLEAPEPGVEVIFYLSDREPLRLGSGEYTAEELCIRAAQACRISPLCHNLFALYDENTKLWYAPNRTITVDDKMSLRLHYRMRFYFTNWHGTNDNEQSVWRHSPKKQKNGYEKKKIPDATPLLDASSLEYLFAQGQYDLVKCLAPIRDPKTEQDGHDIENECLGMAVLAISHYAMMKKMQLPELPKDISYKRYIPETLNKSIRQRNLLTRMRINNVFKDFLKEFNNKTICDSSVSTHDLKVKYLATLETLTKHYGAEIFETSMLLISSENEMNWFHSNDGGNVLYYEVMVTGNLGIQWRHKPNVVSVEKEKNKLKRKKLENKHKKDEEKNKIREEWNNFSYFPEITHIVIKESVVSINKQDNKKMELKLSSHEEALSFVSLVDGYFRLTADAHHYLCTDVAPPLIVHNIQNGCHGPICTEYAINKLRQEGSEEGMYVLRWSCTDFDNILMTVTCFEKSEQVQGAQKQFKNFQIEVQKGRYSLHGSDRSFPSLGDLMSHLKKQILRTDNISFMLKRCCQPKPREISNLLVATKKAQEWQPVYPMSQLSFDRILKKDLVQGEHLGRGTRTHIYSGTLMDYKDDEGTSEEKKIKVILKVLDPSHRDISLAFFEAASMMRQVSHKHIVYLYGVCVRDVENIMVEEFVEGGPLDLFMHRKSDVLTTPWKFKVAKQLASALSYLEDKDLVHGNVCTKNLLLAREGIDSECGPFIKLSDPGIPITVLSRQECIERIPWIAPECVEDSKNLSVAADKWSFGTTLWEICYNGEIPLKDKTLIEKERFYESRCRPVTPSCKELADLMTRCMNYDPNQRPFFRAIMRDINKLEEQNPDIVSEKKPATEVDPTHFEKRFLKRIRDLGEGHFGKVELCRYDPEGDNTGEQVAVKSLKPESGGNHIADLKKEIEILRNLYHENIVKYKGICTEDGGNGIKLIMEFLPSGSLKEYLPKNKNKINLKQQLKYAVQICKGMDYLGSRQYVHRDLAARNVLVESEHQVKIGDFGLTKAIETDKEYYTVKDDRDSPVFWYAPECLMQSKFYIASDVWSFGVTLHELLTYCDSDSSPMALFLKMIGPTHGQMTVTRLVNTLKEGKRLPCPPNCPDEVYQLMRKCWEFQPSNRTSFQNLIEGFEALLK

U-937 [20] = assay: Induction of cell cycle arrest in human U-937 cells assessed as accumulation at G2/M phase at 33 nM measured after 24 hrs by propidium iodide staining based flow cytometric analysis (reference value: 21.41%); assay type: functional
U-937 [21] = assay: Induction of cell cycle arrest in human U-937 cells assessed as accumulation at S phase at 300 nM measured after 24 hrs by propidium iodide staining based flow cytometric analysis (reference value: 15.35%); assay type: functional
[22] = target: Tyrosine-protein kinase BTK (Homo sapiens) (UniProt Q06187); assay: Inhibition of BTK (unknown origin) at 0.5 uM assessed as competition rate relative to control
BaF3 = assay: cells; conditions: Mus musculus, BaF3, 72 h
[23] = target: [Pyruvate dehydrogenase (acetyl-transferring)] kinase isozyme 1, mitochondrial (Homo sapiens) (UniProt Q15118); assay: Inhibition of PDK1 (unknown origin) at 0.5 uM relative to control
[24] = target: T1, Non-receptor tyrosine-protein kinase TYK2; assay: Inhibition of human TYK2
[25] = target: T4, Tyrosine-protein kinase JAK1; assay: Inhibition of human JAK1

T1 sequence (P29597 whole entry): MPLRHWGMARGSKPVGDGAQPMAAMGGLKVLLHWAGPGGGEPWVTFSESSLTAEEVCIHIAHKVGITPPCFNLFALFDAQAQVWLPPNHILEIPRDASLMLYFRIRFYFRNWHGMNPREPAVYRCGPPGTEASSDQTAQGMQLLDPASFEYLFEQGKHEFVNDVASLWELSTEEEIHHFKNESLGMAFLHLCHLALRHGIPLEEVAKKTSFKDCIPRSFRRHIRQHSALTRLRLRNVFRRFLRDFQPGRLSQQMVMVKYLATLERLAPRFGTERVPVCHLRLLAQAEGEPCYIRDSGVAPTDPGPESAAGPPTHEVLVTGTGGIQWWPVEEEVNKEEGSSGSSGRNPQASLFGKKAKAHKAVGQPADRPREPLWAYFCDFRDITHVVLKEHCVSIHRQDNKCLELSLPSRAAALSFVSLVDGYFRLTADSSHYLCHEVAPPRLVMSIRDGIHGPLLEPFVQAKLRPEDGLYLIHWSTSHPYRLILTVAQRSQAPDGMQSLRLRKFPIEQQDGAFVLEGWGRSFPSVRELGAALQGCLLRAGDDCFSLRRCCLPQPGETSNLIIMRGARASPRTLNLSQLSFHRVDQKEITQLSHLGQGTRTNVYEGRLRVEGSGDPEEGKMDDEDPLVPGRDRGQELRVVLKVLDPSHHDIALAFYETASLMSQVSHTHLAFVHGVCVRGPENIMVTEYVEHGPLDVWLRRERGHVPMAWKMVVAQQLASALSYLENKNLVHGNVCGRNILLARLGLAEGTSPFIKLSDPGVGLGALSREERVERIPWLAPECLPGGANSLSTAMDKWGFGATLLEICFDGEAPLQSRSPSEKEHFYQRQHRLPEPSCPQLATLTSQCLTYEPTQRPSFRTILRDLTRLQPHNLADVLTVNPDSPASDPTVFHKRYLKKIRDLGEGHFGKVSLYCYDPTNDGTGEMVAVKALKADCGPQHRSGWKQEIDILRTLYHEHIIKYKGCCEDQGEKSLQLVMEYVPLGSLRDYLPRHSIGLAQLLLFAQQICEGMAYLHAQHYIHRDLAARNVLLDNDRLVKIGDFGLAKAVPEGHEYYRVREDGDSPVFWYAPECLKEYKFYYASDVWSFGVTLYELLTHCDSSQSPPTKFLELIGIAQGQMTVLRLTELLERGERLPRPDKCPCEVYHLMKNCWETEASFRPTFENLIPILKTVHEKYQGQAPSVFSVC

inhibition [1]: 36%
IC50 [2]: 1.2 nM
inhibition [3]: 30%
inhibition [5]: Tde
inhibition [6]: 40%
inhibition [7]: 9%
inhibition [9]: 40%
AUC(0-inf) [10]: 334 ng·h/mL
inhibition [11]: 106%
inhibition [12]: Active
inhibition [13]: 71%
inhibition [15]: 40%
IC50 [16]: 135 nM
IC50 [18]: 132 nM
inhibition [19]: 84%
inhibition [22]: 40%
IC50 (BaF3): 178 nM
inhibition [23]: 111%
IC50 [24]: 365 nM
IC50 [25]: 4730 nM
SMILES: C=CC(=O)Nc1cc(Nc2ncc(Cl)c(O[C@@H]3CO[C@H]4[C@@H]3OC[C@H]4OC)n2)ccc1N(C)CCN(C)C
Activity (U-937 [4]): 72.06%
Activity (U-937 [8]): Active
Activity (U-937 [14]): 15.33%
Activity (U-937 [17]): 15.23%
Activity (U-937 [20]): 21.31%
Activity (U-937 [21]): 7.5%
